The source of these data is publication PMC9584352, “Conserved Pib2 regions have distinct roles in TORC1 regulation at the vacuole” (Journal of Cell Science, 2022).

One data set addresses T1, Pib2 442–625 (Saccharomyces cerevisiae, UniProt P53191).
T1 construct: FYVE domain fragment, start of FYVE domain to beginning of tail motif, residues 442-625; purified; predominantly monomeric by SEC-MALS
T1 sequence (P53191 442-625): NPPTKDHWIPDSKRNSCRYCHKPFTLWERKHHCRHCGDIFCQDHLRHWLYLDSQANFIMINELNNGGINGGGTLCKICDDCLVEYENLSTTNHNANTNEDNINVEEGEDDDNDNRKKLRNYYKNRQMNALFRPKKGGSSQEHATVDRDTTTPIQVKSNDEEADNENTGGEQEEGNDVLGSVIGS
Description: ITC. The format is binding.

The target in a further data set is T2, EEA1 1287–1411 (Homo sapiens, UniProt Q15075).
T2 construct: purified; largely dimeric by SEC-MALS
T2 sequence (Q15075 1287-1411): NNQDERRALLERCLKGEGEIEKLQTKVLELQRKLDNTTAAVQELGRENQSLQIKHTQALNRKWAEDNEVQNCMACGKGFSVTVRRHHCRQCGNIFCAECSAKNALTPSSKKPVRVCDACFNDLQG
In words: ITC. The format is binding.

For the next data set, the target named is T3, Pib2 419–625 (Saccharomyces cerevisiae, UniProt P53191).
T3 construct: FYVE domain fragment starting 23 residues before the FYVE core, residues 419-625; purified; predominantly monomeric by SEC-MALS
T3 sequence (P53191 419-625): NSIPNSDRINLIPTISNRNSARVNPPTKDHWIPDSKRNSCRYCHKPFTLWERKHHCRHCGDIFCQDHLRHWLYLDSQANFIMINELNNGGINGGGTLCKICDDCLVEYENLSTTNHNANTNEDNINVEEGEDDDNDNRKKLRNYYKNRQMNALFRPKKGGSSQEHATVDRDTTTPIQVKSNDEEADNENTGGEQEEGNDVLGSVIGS
Description: ITC. The format is binding.

The next data set deals with T4, EEA1 1347–1411 (Homo sapiens, UniProt Q15075).
T4 construct: purified; largely monomeric by SEC-MALS
T4 sequence (Q15075 1347-1411): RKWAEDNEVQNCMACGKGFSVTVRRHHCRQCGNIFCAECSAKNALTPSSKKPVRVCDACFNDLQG
In words: ITC. The format is binding.

Data set [1] deals with the molecule itself. In words: SEC-MALS; Superdex 75 10/300 in 20 mM Tris-HCl pH 7.4, 150 mM NaCl, 1.93 mM β-mercaptoethanol, room temperature; 500 µl of each protein loaded at 50 or 100 µM as indicated; detectors at 25°C. A general note: SEC sorts molecules by how far they enter the pores of the column.

On to `CCCC(=O)OC[C@H](COP(=O)(O)O[C@@H]1[C@H](O)[C@H](OP(=O)(O)O)[C@@H](O)[C@H](O)[C@H]1O)OC(=O)CCC` [PI3P diC4], for which the dissociation constant Kd at Pib2 442–625 came out at 736 µM.
`O=P(O)(O)O[C@@H]1[C@H](O)[C@H](OP(=O)(O)O)[C@@H](O)[C@H](O)[C@H]1O` [inositol 1,3-bisphosphate]: the Kd on EEA1 1287–1411 is approximately 95.8 µM; on Pib2 419–625, more than 290 µM; on Pib2 442–625, 212 µM; at EEA1 1347–1411, more than 300 µM.

B1: EEA1 1287–1411 (domain or fragment, UniProt Q15075 1287-1411, looked up)
chain: NNQDERRALLERCLKGEGEIEKLQTKVLELQRKLDNTTAAVQELGRENQSLQIKHTQALNRKWAEDNEVQNCMACGKGFSVTVRRHHCRQCGNIFCAECSAKNALTPSSKKPVRVCDACFNDLQG
notes: also called longer EEA1 FYVE construct; source: purified
Turning to B1, in data set [1], the “stoichiometry N” value was determined as 2.

One may read the Kd as the concentration at which binding is half-saturated. As a reminder, the stoichiometry N is a count of units in the complex or per binding partner.
